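Tested at 5 concentrations; 48 h exposure; 96-well plates; endpoints linearly interpolated, else capped at highest concentration. The concentration for 50% growth inhibition is given as GI50.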 Active and inactive are the calls of the source. Cut-off read from the data, not from the text of the source: active = GI50 up to about 1.1 µM and inactive = higher.
Key:
Assay in all cases: DTP human tumour cell line panel, 48 h
[1] = test system: 786-0
[2] = test system: A498
[3] = test system: A549
[4] = test system: ACHN
[5] = test system: CAKI-1
[6] = test system: CCRF-CEM
[7] = test system: COLO 205
[8] = test system: DLD-1
[9] = test system: DMS-114
[10] = test system: DMS-273
[11] = test system: HCC 2998
[12] = test system: HCT-116
[13] = test system: HCT-15
[14] = test system: HOP-18
[15] = test system: HOP-62
[16] = test system: HOP-92
[17] = test system: HT-29
[18] = test system: IGROV-1
[19] = test system: K562
[20] = test system: KM-20L2
[21] = test system: KM12
[22] = test system: LOX IMVI
[23] = test system: LXFL 529
[24] = test system: M14
[25] = test system: M19-MEL
[26] = test system: MOLT-4
[27] = test system: NCI-H226
[28] = test system: NCI-H23
[29] = test system: NCI-H460
[30] = test system: NCI-H522
[31] = test system: OVCAR-3
[32] = test system: OVCAR-4
[33] = test system: OVCAR-5
[34] = test system: OVCAR-8
[35] = test system: RPMI-8226
[36] = test system: RXF 393
[37] = test system: RXF 631
[38] = test system: SF-268
[39] = test system: SF-295
[40] = test system: SF-539
[41] = test system: SK-MEL-28
[42] = test system: SK-MEL-2
[43] = test system: SK-MEL-5
[44] = test system: SK-OV-3
[45] = test system: SN12C
[46] = test system: SNB-75
[47] = test system: SNB-78
[48] = test system: SR
[49] = test system: SW-620
[50] = test system: TK-10
[51] = test system: U-251
[52] = test system: UACC-257
[53] = test system: UACC-62
[54] = test system: UO-31
[55] = test system: EKVX
[56] = test system: HL-60
[57] = test system: Malme-3M
[58] = test system: SNB-19
[59] = test system: XF498

In the case of `COC1=C(OC)CCC(/C(C#N)=C/c2ccc(OC)c(OC)c2)=C1`, the GI50 [1] is reported as 67.5 µM (inactive), the GI50 [2] is reported as > 100 µM (inactive) and the GI50 [3] is reported as > 100 µM (inactive). The GI50 [4] was > 100 µM (inactive), the GI50 [5] was > 100 µM (inactive) and the GI50 [6] was > 100 µM (inactive). For the same compound, the GI50 [7] was 95.3 µM (inactive), the GI50 [8] was > 100 µM (inactive) and the GI50 [9] was 31.6 µM (inactive). For the same compound, the GI50 [10] was 49.8 µM (inactive), the GI50 [11] was > 100 µM (inactive) and the GI50 [12] was > 100 µM (inactive). The GI50 [13] was greater than 100 µM, the GI50 [14] was > 100 µM (inactive) and the GI50 [15] was 31.1 µM (inactive). The GI50 [16] was 49.8 µM (inactive), the GI50 [17] was 80.9 µM (inactive) and the GI50 [18] was 56.4 µM (inactive). For the same compound, the GI50 [19] was 48.3 µM (inactive), the GI50 [20] was > 100 µM (inactive) and the GI50 [21] was > 100 µM (inactive). For the same compound, the GI50 [22] was > 100 µM (inactive), the GI50 [23] was > 100 µM (inactive) and the GI50 [24] was > 100 µM (inactive). The GI50 [25] was > 100 µM (inactive), the GI50 [26] was > 100 µM (inactive) and the GI50 [27] was > 100 µM (inactive). For the same compound, the GI50 [28] was 79.1 µM (inactive), the GI50 [29] was > 100 µM (inactive) and the GI50 [30] was 21.4 µM (inactive). For the same compound, the GI50 [31] was > 100 µM (inactive), the GI50 [32] was > 100 µM (inactive) and the GI50 [33] was > 100 µM (inactive). For the same compound, the GI50 [34] was > 100 µM (inactive), the GI50 [35] was > 100 µM (inactive) and the GI50 [36] was 36.7 µM (inactive). The GI50 [37] was > 100 µM (inactive), the GI50 [38] was 37.2 µM (inactive) and the GI50 [39] was 15.9 µM (inactive). The GI50 [40] was 59.3 µM (inactive), the GI50 [41] was > 100 µM (inactive) and the GI50 [42] was 85.9 µM (inactive). For the same compound, the GI50 [43] was > 100 µM (inactive), the GI50 [44] was 26.4 µM (inactive) and the GI50 [45] was > 100 µM (inactive). The GI50 [46] was 16 µM (inactive), the GI50 [47] was 53.2 µM (inactive) and the GI50 [48] was 66.7 µM (inactive). For the same compound, the GI50 [49] was > 100 µM (inactive), the GI50 [50] was 34.2 µM (inactive) and the GI50 [51] was 34.5 µM (inactive). The GI50 [52] was > 100 µM (inactive), the GI50 [53] was > 100 µM (inactive) and the GI50 [54] was 36.1 µM (inactive).
`CCOC(=O)C(CNc1ccc(O)cc1)NC(=O)c1ccccc1` (stereo unspecified) was tested, and the GI50 [1] was 64.3 µM (inactive), the GI50 [2] was > 100 µM (inactive) and the GI50 [3] was > 100 µM (inactive). For the same compound, the GI50 [4] was 54.8 µM (inactive), the GI50 [5] was > 100 µM (inactive) and the GI50 [6] was 32.3 µM (inactive). The GI50 [7] was > 100 µM (inactive), the GI50 [8] was > 100 µM (inactive) and the GI50 [9] was > 79.8 µM (inactive). For the same compound, the GI50 [10] was 65 µM (inactive), the GI50 [55] was > 100 µM (inactive) and the GI50 [11] was > 100 µM (inactive). For the same compound, the GI50 [12] was > 100 µM (inactive), the GI50 [13] was greater than 100 µM and the GI50 [56] was 25.6 µM (inactive). The GI50 [14] was > 100 µM (inactive), the GI50 [15] was > 100 µM (inactive) and the GI50 [16] was > 100 µM (inactive). For the same compound, the GI50 [17] was > 100 µM (inactive), the GI50 [18] was > 100 µM (inactive) and the GI50 [19] was 37.8 µM (inactive). The GI50 [20] was > 100 µM (inactive), the GI50 [21] was > 100 µM (inactive) and the GI50 [22] was 99.8 µM (inactive). The GI50 [23] was 77.3 µM (inactive), the GI50 [24] was > 66.4 µM (inactive) and the GI50 [25] was 47 µM (inactive). The GI50 [26] was 50.8 µM (inactive), the GI50 [57] was > 100 µM (inactive) and the GI50 [27] was > 100 µM (inactive). The GI50 [28] was > 100 µM (inactive), the GI50 [29] was > 100 µM (inactive) and the GI50 [30] was 75.3 µM (inactive). For the same compound, the GI50 [31] was > 100 µM (inactive), the GI50 [32] was > 66.2 µM (inactive) and the GI50 [33] was > 100 µM (inactive). The GI50 [34] was > 100 µM (inactive), the GI50 [35] was 53.6 µM (inactive) and the GI50 [36] was > 100 µM (inactive). The GI50 [38] was > 100 µM (inactive), the GI50 [39] was > 100 µM (inactive) and the GI50 [40] was > 100 µM (inactive). The GI50 [41] was > 100 µM (inactive), the GI50 [42] was > 100 µM (inactive) and the GI50 [43] was > 100 µM (inactive). The GI50 [44] was > 100 µM (inactive), the GI50 [45] was > 100 µM (inactive) and the GI50 [58] was > 100 µM (inactive). The GI50 [46] was > 100 µM (inactive), the GI50 [47] was > 100 µM (inactive) and the GI50 [48] was > 61 µM (inactive). For the same compound, the GI50 [49] was > 100 µM (inactive), the GI50 [50] was > 100 µM (inactive) and the GI50 [51] was > 100 µM (inactive). For the same compound, the GI50 [52] was > 100 µM (inactive), the GI50 [53] was > 53.7 µM (inactive) and the GI50 [54] was > 100 µM (inactive). For the same compound, the GI50 [59] was > 100 µM (inactive).
For `CCN(CC)c1c(C)nnn1C1OC(COC(C)=O)C(OC(C)=O)C(OC(C)=O)C1OC(C)=O` (stereo unspecified), the GI50 [1] was > 100 µM (inactive), the GI50 [2] was > 100 µM (inactive) and the GI50 [3] was > 100 µM (inactive). For the same compound, the GI50 [4] was > 100 µM (inactive), the GI50 [5] was > 100 µM (inactive) and the GI50 [6] was > 100 µM (inactive). The GI50 [7] was > 100 µM (inactive), the GI50 [8] was > 100 µM (inactive) and the GI50 [9] was > 100 µM (inactive). The GI50 [10] was > 10 µM (inactive), the GI50 [55] was > 100 µM (inactive) and the GI50 [11] was > 100 µM (inactive). The GI50 [12] was > 100 µM (inactive), the GI50 [13] was 38.6 µM and the GI50 [56] was > 100 µM (inactive). For the same compound, the GI50 [14] was > 100 µM (inactive), the GI50 [15] was > 100 µM (inactive) and the GI50 [16] was 70.8 µM (inactive). The GI50 [17] was > 100 µM (inactive), the GI50 [18] was > 100 µM (inactive) and the GI50 [19] was > 100 µM (inactive). For the same compound, the GI50 [20] was > 100 µM (inactive), the GI50 [21] was > 100 µM (inactive) and the GI50 [23] was > 100 µM (inactive). For the same compound, the GI50 [24] was > 100 µM (inactive), the GI50 [25] was > 100 µM (inactive) and the GI50 [26] was > 100 µM (inactive). For the same compound, the GI50 [57] was > 100 µM (inactive), the GI50 [27] was > 100 µM (inactive) and the GI50 [28] was > 100 µM (inactive). For the same compound, the GI50 [29] was > 100 µM (inactive), the GI50 [30] was > 100 µM (inactive) and the GI50 [31] was > 100 µM (inactive). For the same compound, the GI50 [32] was > 100 µM (inactive), the GI50 [33] was > 100 µM (inactive) and the GI50 [34] was > 100 µM (inactive). The GI50 [35] was 28.6 µM (inactive), the GI50 [37] was > 100 µM (inactive) and the GI50 [38] was > 100 µM (inactive). For the same compound, the GI50 [39] was > 100 µM (inactive), the GI50 [40] was > 100 µM (inactive) and the GI50 [41] was > 100 µM (inactive). The GI50 [43] was > 100 µM (inactive), the GI50 [44] was > 100 µM (inactive) and the GI50 [45] was > 100 µM (inactive). The GI50 [58] was > 100 µM (inactive), the GI50 [46] was > 100 µM (inactive) and the GI50 [47] was > 100 µM (inactive). The GI50 [49] was 15 µM (inactive), the GI50 [50] was > 100 µM (inactive) and the GI50 [51] was > 100 µM (inactive). The GI50 [52] was > 100 µM (inactive), the GI50 [53] was > 100 µM (inactive) and the GI50 [54] was > 100 µM (inactive).

From ChEMBL document CHEMBL1201862, “PubChem BioAssay data set” (2004)
